Read-outs that look alike come from different tables or passages of the source.
Key:
α2β2-nAChR = α2β2-nAChR (Rattus norvegicus, UniProt P12389+P12390); test: Heteromeric nAChR binding, transfected HEK293 membranes, [3H]epibatidine
[1] = format: in vivo; details: mice, i.v.
α7-nAChR [2] = target: T1, α7-nAChR (Mus musculus, UniProt P49582); test: Blocking of [18F]7a with non-α7-nAChR CNS drugs in CD-1 mice; format: in vivo; details: 2 mg/kg, s.c., 10 min before radiotracer, 90 min after tracer
α7-nAChR [3] = target: T1, α7-nAChR; set-up: species or system CD-1 mice; details: in vivo
α7-nAChR [4] = details: read-out: α7-nAChR Ki, cited from earlier work
α7-nAChR [5] = target: T2, α7-nAChR (Rattus norvegicus, UniProt Q05941); test: biochemical; format: binding; details: two independent assays, each in duplicate
α7-nAChR [6] = target: T1, α7-nAChR; details: in vivo
α7-nAChR [7] = target: T2, α7-nAChR; details: read-out: KD of radiotracer at α7-nAChR; cited from earlier work

T1 sequence (P49582 23-502): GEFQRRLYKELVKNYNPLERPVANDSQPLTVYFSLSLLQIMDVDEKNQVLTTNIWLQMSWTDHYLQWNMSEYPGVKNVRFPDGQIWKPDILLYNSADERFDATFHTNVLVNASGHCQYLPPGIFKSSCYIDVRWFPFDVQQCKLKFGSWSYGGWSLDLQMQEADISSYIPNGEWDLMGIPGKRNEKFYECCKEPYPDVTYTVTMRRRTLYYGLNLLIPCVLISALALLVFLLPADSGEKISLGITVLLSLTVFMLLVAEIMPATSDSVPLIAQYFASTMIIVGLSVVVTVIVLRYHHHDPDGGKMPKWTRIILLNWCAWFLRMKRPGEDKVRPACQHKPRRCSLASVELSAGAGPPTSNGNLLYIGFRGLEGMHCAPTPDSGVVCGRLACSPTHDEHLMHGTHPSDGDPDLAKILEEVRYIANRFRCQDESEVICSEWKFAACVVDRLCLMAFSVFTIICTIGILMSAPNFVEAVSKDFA
T2 sequence (Q05941 23-502): as the sequence (P49582 23-502) above, with T402A counted along it
α2β2-nAChR, sequence (P12389 28-511): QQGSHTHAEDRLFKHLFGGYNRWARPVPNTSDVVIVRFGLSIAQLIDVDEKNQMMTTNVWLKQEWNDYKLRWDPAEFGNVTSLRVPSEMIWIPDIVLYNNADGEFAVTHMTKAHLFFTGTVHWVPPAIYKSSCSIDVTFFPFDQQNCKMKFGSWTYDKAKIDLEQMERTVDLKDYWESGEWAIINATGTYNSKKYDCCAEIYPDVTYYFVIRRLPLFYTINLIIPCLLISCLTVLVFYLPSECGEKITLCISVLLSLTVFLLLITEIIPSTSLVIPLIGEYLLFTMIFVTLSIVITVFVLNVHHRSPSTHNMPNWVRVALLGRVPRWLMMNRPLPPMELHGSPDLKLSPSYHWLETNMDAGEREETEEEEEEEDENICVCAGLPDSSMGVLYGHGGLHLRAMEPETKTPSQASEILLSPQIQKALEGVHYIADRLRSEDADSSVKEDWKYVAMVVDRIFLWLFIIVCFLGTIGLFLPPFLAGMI
α2β2-nAChR, sequence (P12390 25-500): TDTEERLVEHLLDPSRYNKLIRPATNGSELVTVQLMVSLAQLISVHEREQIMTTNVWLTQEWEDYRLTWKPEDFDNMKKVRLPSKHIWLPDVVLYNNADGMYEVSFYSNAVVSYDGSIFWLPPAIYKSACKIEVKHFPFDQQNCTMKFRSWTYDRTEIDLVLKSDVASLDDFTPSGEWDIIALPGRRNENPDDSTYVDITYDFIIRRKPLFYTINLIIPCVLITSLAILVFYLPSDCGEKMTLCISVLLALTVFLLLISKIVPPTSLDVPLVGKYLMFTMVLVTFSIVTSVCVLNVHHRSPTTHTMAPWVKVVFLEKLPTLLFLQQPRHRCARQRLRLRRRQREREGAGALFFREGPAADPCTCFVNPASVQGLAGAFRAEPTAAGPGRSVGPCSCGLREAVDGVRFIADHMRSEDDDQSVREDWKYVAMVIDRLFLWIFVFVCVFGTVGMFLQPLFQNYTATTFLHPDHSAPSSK

Question: Which Ki (α2β2-nAChR; read-out: α2β2 Ki, stably transfected HEK293 cells, [3H]epibatidine 0.5 nM) does the source give for `O=S1(=O)c2cc(N3CCN4CCC3CC4)ccc2-c2cccc(F)c21` [7a, 3-(1,4-Diazabicyclo[3.2.2]nonan-4-yl)-6-fluorodibenzo[b,d]thiophene 5,5-dioxide] here?
Answer: Its Ki is greater than 10 µM.

Question: And the “behavioral or locomotor activity changes” value ([1]; 0.3 mg/kg)?
Answer: Its value is “Neither behavioral nor locomotor activity changes were observed”.

Question: Which “behavioral or locomotor activity changes” value ([1]; 0.2 mg/kg) does the source give for `O=S1(=O)c2ccc(F)cc2-c2ccc(N3CCN4CCC3CC4)cc21` [7c, 7-(1,4-Diazabicyclo[3.2.2]nonan-4-yl)-2-fluorodibenzo[b,d]thiophene 5,5-dioxide] here?
Answer: The value was “Neither behavioral nor locomotor activity changes were observed”.

Question: Which Ki (α2β2-nAChR) does the source give for `O=S1(=O)c2ccccc2-c2c(N3CCN4CCC3CC4)ccc(F)c21` [7e, 1-(1,4-Diazabicyclo[3.2.2]nonan-4-yl)-4-fluorodibenzo[b,d]thiophene 5,5-dioxide] here?
Answer: The Ki was greater than 10 µM.

Question: Which results are given for `O=C(Oc1ccc(Br)cc1)N1CCN2CCC1CC2` [compound 1]?
Answer: effect on accumulation of [18F]7a in mouse brain regions (α7-nAChR [2]): reduced accumulation of radioactivity; blockade of [18F]7a binding in mouse brain (α7-nAChR [3]): dose dependent blockade in all regions studied; Ki (α7-nAChR [4]; ref [58]): 22 nM

Question: Which “blockade of [18F]7c accumulation in mouse brain” value (α7-nAChR [3]) does the source give for `O=S1(=O)c2ccccc2-c2ccc(N3CCN4CCC3CC4)cc21` [compound 5, 3-(1,4-diazabicyclo[3.2.2]nonan-4-yl)dibenzo[b,d]thiophene 5,5-dioxide] here?
Answer: Its value is “Dose dependent blockade”.

Question: What about the Ki (α7-nAChR [4]) of the same compound?
Answer: Its Ki is 0.023 nM.

Question: For `O=S1(=O)c2cc(N3CCN4CCC3CC4)ccc2-c2cccc(I)c21` [compound 14, 3-(1,4-Diazabicyclo[3.2.2]nonan-4-yl)-6-iododibenzo[b,d]thiophene 5,5-dioxide], which Ki (α7-nAChR [5]) is on record?
Answer: The Ki was 1.93 nM.

Question: Which “blockade of [18F]7a accumulation in mouse brain” value (α7-nAChR [6]) does the source give for `O=c1cccc2n1C[C@@H]1CNC[C@H]2C1` [cytisine] here?
Answer: Its value is “insignificant reduction of radioactivity accumulation in all regions studied”.

Question: Which “blockade of [18F]7a accumulation in mouse brain” value (α7-nAChR [6]) does the source give for `CN1CCC[C@H]1c1cccnc1` [nicotine] here?
Answer: Its value is “significant blockade in all regions, except the nAChR-poor cerebellum”.

Question: For `Cc1nccn1CC1CCc2c(c3ccccc3n2C)C1=O` (centres unmarked) [ondansetron, Ondansetron], which “effect on accumulation of [18F]7a in mouse brain regions” value (α7-nAChR [2]) is on record?
Answer: Its value is “absence of blockade”.

Question: With [^125I]α-Bungarotoxin as the compound, how does the Kd (α7-nAChR [7]) read?
Answer: Its Kd is 0.7 nM.
